Test results: publication PMC5078040 (Oncotarget, 2016)

Key:
FES = target: T1, FES (Homo sapiens, UniProt P07332); assay: KinomeScan; format: binding; conditions: 1uM
T1 construct: purchased DiscoveRx KINOMEscan

CLK3 = target: T2, CLK3 (Homo sapiens, UniProt P49761); assay: KinomeScan; format: binding; conditions: 1uM
T2 construct: purchased DiscoveRx KINOMEscan

AURKB = target: T3, AURKB (Homo sapiens, UniProt Q96GD4); assay: KinomeScan; format: binding; conditions: 1uM
T3 construct: purchased DiscoveRx KINOMEscan

TESK1 = target: T4, TESK1 (Homo sapiens, UniProt Q15569); assay: KinomeScan; format: binding; conditions: 1uM
T4 construct: purchased DiscoveRx KINOMEscan

FGFR3 = target: T5, FGFR3 (Homo sapiens, UniProt P22607); assay: KinomeScan; format: binding; conditions: 1uM
T5 construct: purchased DiscoveRx KINOMEscan

TXK = target: T6, TXK (Homo sapiens, UniProt P42681); assay: KinomeScan; format: binding; conditions: 1uM
T6 construct: purchased DiscoveRx KINOMEscan

MET(Y1235D) = target: T7, MET(Y1235D) (Homo sapiens, UniProt P08581, Y1235D); assay: KinomeScan; format: binding; conditions: 1uM
T7 construct: purchased DiscoveRx KINOMEscan

RIOK2 = target: T8, RIOK2 (Homo sapiens, UniProt Q9BVS4); assay: KinomeScan; format: binding; conditions: 1uM
T8 construct: purchased DiscoveRx KINOMEscan

TLK1 = target: T9, TLK1 (Homo sapiens, UniProt Q9UKI8); assay: KinomeScan; format: binding; conditions: 1uM
T9 construct: purchased DiscoveRx KINOMEscan

DAPK3 = target: T10, DAPK3 (Homo sapiens, UniProt O43293); assay: KinomeScan; format: binding; conditions: 1uM
T10 construct: purchased DiscoveRx KINOMEscan

TYRO3 = target: T11, TYRO3 (Homo sapiens, UniProt Q06418); assay: KinomeScan; format: binding; conditions: 1uM
T11 construct: purchased DiscoveRx KINOMEscan
T11 sequence (Q06418 41-890): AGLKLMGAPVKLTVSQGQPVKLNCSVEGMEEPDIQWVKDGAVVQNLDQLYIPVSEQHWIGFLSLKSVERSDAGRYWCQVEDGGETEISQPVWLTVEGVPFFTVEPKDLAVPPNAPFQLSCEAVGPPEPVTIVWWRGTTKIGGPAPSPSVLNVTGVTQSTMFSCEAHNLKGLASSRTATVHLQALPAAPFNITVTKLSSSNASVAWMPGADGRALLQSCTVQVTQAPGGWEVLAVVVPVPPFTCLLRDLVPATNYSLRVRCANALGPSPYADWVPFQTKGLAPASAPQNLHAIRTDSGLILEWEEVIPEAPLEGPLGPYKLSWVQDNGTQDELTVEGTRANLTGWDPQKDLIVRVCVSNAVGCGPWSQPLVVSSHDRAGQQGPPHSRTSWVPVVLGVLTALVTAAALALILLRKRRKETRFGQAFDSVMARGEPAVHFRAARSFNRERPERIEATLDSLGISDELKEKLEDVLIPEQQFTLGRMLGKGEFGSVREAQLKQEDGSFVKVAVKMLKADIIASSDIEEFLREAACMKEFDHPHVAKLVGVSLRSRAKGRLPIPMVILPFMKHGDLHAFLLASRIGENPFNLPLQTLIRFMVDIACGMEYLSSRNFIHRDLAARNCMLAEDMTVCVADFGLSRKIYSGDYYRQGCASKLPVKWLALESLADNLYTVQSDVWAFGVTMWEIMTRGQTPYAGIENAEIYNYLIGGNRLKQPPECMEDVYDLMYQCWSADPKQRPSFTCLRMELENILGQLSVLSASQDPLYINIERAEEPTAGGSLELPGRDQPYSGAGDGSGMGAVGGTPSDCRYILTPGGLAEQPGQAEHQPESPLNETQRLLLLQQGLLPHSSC

RIOK1 = target: T12, RIOK1 (Homo sapiens, UniProt Q9BRS2); assay: KinomeScan; format: binding; conditions: 1uM
T12 construct: purchased DiscoveRx KINOMEscan

WNK1 = target: T13, WNK1 (Homo sapiens, UniProt Q9H4A3); assay: KinomeScan; format: binding; conditions: 1uM
T13 construct: purchased DiscoveRx KINOMEscan

NEK7 = target: T14, NEK7 (Homo sapiens, UniProt Q8TDX7); assay: KinomeScan; format: binding; conditions: 1uM
T14 construct: purchased DiscoveRx KINOMEscan
T14 sequence (Q8TDX7 whole entry): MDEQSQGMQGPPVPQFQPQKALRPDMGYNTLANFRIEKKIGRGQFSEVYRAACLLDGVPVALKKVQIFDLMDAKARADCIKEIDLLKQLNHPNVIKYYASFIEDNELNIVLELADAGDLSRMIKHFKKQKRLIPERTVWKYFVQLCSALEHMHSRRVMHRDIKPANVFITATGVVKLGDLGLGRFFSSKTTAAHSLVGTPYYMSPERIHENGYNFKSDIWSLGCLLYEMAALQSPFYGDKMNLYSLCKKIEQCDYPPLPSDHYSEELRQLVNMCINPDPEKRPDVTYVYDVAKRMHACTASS

DYRK2 = target: T15, DYRK2 (Homo sapiens, UniProt Q92630); assay: KinomeScan; format: binding; conditions: 1uM
T15 construct: purchased DiscoveRx KINOMEscan

LKB1 = target: T16, LKB1 (Homo sapiens, UniProt Q15831); assay: KinomeScan; format: binding; conditions: 1uM
T16 construct: purchased DiscoveRx KINOMEscan
T16 sequence (Q15831 whole entry): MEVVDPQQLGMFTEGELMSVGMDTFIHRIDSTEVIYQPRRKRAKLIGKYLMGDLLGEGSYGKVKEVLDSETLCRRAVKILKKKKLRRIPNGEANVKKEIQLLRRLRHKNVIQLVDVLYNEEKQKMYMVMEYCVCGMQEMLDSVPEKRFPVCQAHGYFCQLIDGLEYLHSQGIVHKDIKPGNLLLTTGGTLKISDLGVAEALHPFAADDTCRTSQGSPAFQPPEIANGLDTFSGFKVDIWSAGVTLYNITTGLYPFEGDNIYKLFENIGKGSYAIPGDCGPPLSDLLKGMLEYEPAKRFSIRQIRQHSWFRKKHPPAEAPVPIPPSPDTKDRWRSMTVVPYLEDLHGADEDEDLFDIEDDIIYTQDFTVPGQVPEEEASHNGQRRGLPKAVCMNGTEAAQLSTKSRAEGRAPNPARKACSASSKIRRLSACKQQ

[1] = target: T17, JAK1(JH1domain-catalytic) (Homo sapiens, UniProt P23458); assay: KinomeScan; format: binding; conditions: 1uM
T17 construct: JAK1(JH1domain-catalytic); purchased DiscoveRx KINOMEscan

TBK1 = target: T18, TBK1 (Homo sapiens, UniProt Q9UHD2); assay: KinomeScan; format: binding; conditions: 1uM
T18 construct: purchased DiscoveRx KINOMEscan

MAP3K3 = target: T19, MAP3K3 (Homo sapiens, UniProt Q99759); assay: KinomeScan; format: binding; conditions: 1uM
T19 construct: purchased DiscoveRx KINOMEscan
T19 sequence (Q99759 whole entry): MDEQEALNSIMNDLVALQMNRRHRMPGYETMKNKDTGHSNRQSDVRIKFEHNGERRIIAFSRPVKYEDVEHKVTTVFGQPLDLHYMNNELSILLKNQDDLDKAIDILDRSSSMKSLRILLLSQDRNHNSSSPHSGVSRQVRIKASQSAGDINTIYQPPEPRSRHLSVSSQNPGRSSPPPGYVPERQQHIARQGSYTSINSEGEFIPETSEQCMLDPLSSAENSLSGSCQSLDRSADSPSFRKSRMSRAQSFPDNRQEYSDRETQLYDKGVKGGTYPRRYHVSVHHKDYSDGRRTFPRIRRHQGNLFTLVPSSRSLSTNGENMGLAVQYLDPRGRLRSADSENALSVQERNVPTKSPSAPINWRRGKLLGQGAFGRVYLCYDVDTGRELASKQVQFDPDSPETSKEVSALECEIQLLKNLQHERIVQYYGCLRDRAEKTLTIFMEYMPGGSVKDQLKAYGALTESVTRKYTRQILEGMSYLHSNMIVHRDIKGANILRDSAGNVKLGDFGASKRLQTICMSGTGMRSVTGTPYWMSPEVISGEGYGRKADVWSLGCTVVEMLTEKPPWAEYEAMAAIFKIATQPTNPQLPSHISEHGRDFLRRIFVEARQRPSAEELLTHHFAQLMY

SYK = target: T20, SYK (Homo sapiens, UniProt P43405); assay: KinomeScan; format: binding; conditions: 1uM
T20 construct: purchased DiscoveRx KINOMEscan

PLK4 = target: T21, PLK4 (Homo sapiens, UniProt O00444); assay: KinomeScan; format: binding; conditions: 1uM
T21 construct: purchased DiscoveRx KINOMEscan

MEK3 = target: T22, MEK3 (Homo sapiens, UniProt P46734); assay: KinomeScan; format: binding; conditions: 1uM
T22 construct: purchased DiscoveRx KINOMEscan

PIK3C2A = target: T23, PIK3C2A (Homo sapiens, UniProt O00443); assay: ADP-glo biochemical assay
T23 construct: purchased Invitrogen
Procedure: (§1) The reaction in each tube was started immediately by adding ATP and kept going for an hour under 37°C. After the tube cooled for 5 minutes at room temperature, 5 μL solvent reactions were carried out in a 384-well plate. Then 5 μL of ADP-Glo™ reagent was added into each well to stop the reaction and consume the remaining ADP within 40 minutes. At the end, 10 μL of kinase detection reagent was added into the well and incubated for 30 minutes to produce a luminescence signal. Luminescence signal was measured with an automated plate reader (Perkin-Elmer Envision) and each measurement was performed in triplicate.

QSK = target: T24, QSK (Homo sapiens, UniProt Q9Y2K2); assay: KinomeScan; format: binding; conditions: 1uM
T24 construct: purchased DiscoveRx KINOMEscan

TNNI3K = target: T25, TNNI3K (Homo sapiens, UniProt Q59H18); assay: KinomeScan; format: binding; conditions: 1uM
T25 construct: purchased DiscoveRx KINOMEscan

MST3 = target: T26, MST3 (Homo sapiens, UniProt Q9Y6E0); assay: KinomeScan; format: binding; conditions: 1uM
T26 construct: purchased DiscoveRx KINOMEscan

CSNK2A1 = target: T27, CSNK2A1 (Homo sapiens, UniProt P68400); assay: KinomeScan; format: binding; conditions: 1uM
T27 construct: purchased DiscoveRx KINOMEscan

TNK2 = target: T28, TNK2 (Homo sapiens, UniProt Q07912); assay: KinomeScan; format: binding; conditions: 1uM
T28 construct: purchased DiscoveRx KINOMEscan

CSNK1A1 = target: T29, CSNK1A1 (Homo sapiens, UniProt P48729); assay: KinomeScan; format: binding; conditions: 1uM
T29 construct: purchased DiscoveRx KINOMEscan

CHEK1 = target: T30, CHEK1 (Homo sapiens, UniProt O14757); assay: KinomeScan; format: binding; conditions: 1uM
T30 construct: purchased DiscoveRx KINOMEscan

MEK2 = target: T31, MEK2 (Homo sapiens, UniProt P36507); assay: KinomeScan; format: binding; conditions: 1uM
T31 construct: purchased DiscoveRx KINOMEscan
T31 sequence (P36507 whole entry): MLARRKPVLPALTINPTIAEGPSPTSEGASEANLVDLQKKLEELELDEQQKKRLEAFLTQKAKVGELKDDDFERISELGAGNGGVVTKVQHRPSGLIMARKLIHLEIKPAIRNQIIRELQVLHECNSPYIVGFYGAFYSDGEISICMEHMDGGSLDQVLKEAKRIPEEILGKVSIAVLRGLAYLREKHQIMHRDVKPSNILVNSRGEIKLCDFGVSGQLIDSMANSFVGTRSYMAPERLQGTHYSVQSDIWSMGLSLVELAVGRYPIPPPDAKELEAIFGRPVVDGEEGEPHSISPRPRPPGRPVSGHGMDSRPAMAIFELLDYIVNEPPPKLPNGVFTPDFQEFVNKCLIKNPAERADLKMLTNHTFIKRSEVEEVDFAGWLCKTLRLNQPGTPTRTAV

NEK10 = target: T32, NEK10 (Homo sapiens, UniProt Q6ZWH5); assay: KinomeScan; format: binding; conditions: 1uM
T32 construct: purchased DiscoveRx KINOMEscan

[2] = target: T33, ABL1(T315I)-nonphosphorylated (Homo sapiens, UniProt P00519, T315I); assay: KinomeScan; format: binding; conditions: 1uM
T33 construct: purchased DiscoveRx KINOMEscan

EPHA1 = target: T34, EPHA1 (Homo sapiens, UniProt P21709); assay: KinomeScan; format: binding; conditions: 1uM
T34 construct: purchased DiscoveRx KINOMEscan

[3] = target: T35, TYK2(JH1domain-catalytic) (Homo sapiens, UniProt P29597); assay: KinomeScan; format: binding; conditions: 1uM
T35 construct: TYK2(JH1domain-catalytic); purchased DiscoveRx KINOMEscan

PIK3CG = target: T36, PIK3CG (Homo sapiens, UniProt P48736); assay: KinomeScan; format: binding; conditions: 1uM
T36 construct: purchased DiscoveRx KINOMEscan
T36 sequence (P48736 whole entry): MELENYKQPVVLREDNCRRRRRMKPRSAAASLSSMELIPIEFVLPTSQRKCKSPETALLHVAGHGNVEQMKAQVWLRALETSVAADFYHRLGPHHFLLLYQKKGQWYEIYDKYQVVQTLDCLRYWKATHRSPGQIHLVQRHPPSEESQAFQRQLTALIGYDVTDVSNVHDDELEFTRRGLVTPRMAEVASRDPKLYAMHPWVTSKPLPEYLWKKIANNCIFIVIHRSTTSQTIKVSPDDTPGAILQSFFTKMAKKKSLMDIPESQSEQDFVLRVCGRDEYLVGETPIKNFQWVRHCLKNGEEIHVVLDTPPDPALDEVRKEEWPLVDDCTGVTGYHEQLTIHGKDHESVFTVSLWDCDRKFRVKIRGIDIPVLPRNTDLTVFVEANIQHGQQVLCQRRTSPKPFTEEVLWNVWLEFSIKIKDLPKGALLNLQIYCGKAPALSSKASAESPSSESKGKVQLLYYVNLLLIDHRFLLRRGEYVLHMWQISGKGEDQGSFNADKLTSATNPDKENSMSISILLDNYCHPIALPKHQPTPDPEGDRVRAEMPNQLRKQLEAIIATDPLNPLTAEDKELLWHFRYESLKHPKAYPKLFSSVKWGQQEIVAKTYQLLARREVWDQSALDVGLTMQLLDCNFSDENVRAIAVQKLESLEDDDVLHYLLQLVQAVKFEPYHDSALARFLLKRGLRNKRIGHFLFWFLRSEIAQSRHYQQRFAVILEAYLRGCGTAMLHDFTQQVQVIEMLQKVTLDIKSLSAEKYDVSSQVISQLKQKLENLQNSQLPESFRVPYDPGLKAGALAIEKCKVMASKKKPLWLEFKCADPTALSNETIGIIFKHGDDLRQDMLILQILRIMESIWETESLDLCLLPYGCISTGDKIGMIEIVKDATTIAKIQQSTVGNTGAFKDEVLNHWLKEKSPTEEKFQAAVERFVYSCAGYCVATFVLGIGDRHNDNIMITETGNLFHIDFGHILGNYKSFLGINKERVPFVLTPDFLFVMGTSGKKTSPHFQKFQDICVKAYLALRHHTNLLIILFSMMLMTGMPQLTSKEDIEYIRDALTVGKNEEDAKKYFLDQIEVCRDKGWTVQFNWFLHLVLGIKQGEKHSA

PAK6 = target: T37, PAK6 (Homo sapiens, UniProt Q9NQU5); assay: KinomeScan; format: binding; conditions: 1uM
T37 construct: purchased DiscoveRx KINOMEscan

PIK3CA(M1043I) = target: T38, PIK3CA(M1043I) (Homo sapiens, UniProt P42336, M1043I); assay: KinomeScan; format: binding; conditions: 1uM
T38 construct: purchased DiscoveRx KINOMEscan

KIT(L576P) = target: T39, KIT(L576P) (Homo sapiens, UniProt P10721, L576P); assay: KinomeScan; format: binding; conditions: 1uM
T39 construct: purchased DiscoveRx KINOMEscan

Vps34 = target: T40, Vps34 (Homo sapiens, UniProt Q8NEB9); assay: ADP-glo biochemical assay
T40 construct: purchased Invitrogen
Procedure: as §1

STK16 = target: T41, STK16 (Homo sapiens, UniProt O75716); assay: KinomeScan; format: binding; conditions: 1uM
T41 construct: purchased DiscoveRx KINOMEscan

BMPR1A = target: T42, BMPR1A (Homo sapiens, UniProt P36894); assay: KinomeScan; format: binding; conditions: 1uM
T42 construct: purchased DiscoveRx KINOMEscan

INSRR = target: T43, INSRR (Homo sapiens, UniProt P14616); assay: KinomeScan; format: binding; conditions: 1uM
T43 construct: purchased DiscoveRx KINOMEscan
T43 sequence (P14616 27-1297): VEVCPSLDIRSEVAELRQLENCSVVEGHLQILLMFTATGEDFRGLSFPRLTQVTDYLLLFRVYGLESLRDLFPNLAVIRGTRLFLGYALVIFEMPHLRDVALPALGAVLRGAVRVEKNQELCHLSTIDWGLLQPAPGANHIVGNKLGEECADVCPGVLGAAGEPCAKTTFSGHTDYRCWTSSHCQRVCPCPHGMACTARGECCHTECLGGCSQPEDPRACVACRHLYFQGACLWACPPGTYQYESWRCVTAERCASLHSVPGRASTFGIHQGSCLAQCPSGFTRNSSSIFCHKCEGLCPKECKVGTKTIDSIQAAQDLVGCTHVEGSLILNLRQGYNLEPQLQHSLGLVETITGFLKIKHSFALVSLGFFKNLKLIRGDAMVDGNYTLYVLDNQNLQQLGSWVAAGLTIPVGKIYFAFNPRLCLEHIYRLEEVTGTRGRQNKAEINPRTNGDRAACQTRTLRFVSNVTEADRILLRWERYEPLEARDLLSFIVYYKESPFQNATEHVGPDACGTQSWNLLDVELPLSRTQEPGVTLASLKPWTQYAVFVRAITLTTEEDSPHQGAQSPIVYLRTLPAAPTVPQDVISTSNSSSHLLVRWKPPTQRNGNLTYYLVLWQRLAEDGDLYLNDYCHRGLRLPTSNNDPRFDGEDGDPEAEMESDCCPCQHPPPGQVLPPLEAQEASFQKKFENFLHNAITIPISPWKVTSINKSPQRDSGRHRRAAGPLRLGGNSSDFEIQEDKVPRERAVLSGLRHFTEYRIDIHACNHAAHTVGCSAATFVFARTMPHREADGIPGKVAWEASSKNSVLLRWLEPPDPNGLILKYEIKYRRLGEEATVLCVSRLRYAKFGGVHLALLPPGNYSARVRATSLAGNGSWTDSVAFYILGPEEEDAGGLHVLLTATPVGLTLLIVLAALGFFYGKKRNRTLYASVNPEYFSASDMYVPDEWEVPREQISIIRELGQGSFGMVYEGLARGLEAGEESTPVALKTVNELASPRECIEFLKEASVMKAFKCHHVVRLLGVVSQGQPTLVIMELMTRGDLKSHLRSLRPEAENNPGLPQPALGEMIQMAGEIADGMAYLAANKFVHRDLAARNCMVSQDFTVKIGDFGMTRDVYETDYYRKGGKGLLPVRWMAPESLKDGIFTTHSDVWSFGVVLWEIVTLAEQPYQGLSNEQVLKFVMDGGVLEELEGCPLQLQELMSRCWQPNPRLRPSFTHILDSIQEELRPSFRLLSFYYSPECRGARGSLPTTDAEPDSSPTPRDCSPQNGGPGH

SMILES: Cc1nc(NC(=O)[C@@H](N)C(C)C)sc1-c1cnc(Cl)c(NS(=O)(=O)c2ccccc2)c1 [PI3KD-IN-015]
- KinomeScan FES (FES): 100
- KinomeScan CLK3 (CLK3): 100
- KinomeScan AURKB (AURKB): 100
- KinomeScan TESK1 (TESK1): 100
- KinomeScan FGFR3 (FGFR3): 100
- KinomeScan TXK (TXK): 100
- KinomeScan MET(Y1235D) (MET(Y1235D)): 100
- KinomeScan RIOK2 (RIOK2): 72
- KinomeScan TLK1 (TLK1): 79
- KinomeScan DAPK3 (DAPK3): 91
- KinomeScan TYRO3 (TYRO3): 100
- KinomeScan RIOK1 (RIOK1): 94
- KinomeScan WNK1 (WNK1): 100
- KinomeScan NEK7 (NEK7): 100
- KinomeScan DYRK2 (DYRK2): 100
- KinomeScan LKB1 (LKB1): 79
- KinomeScan JAK1(JH1domain-catalytic) [1]: 92
- KinomeScan TBK1 (TBK1): 100
- KinomeScan MAP3K3 (MAP3K3): 100
- KinomeScan SYK (SYK): 100
- KinomeScan PLK4 (PLK4): 99
- KinomeScan MEK3 (MEK3): 93
- IC50 (PIK3C2A): > 10000 nM
- KinomeScan QSK (QSK): 94
- KinomeScan TNNI3K (TNNI3K): 95
- KinomeScan MST3 (MST3): 96
- KinomeScan CSNK2A1 (CSNK2A1): 100
- KinomeScan TNK2 (TNK2): 100
- KinomeScan CSNK1A1 (CSNK1A1): 100
- KinomeScan CHEK1 (CHEK1): 100
- KinomeScan MEK2 (MEK2): 94
- KinomeScan NEK10 (NEK10): 83
- KinomeScan ABL1(T315I)-nonphosphorylated [2]: 100
- KinomeScan EPHA1 (EPHA1): 100
- KinomeScan TYK2(JH1domain-catalytic) [3]: 100
- KinomeScan PIK3CG (PIK3CG): 0.05
- KinomeScan PAK6 (PAK6): 91
- KinomeScan PIK3CA(M1043I) (PIK3CA(M1043I)): 0
- KinomeScan KIT(L576P) (KIT(L576P)): 83
- IC50 (Vps34): 280 nM
- KinomeScan STK16 (STK16): 91
- KinomeScan BMPR1A (BMPR1A): 84
- KinomeScan INSRR (INSRR): 97
